What was measured:
[1] = system: activation of plasminogen with single-chain t-PA (sc-tPA); details: s-2251
Method: (§1) Fifty microliters each of various concentration of DS (BIDS, CCDS) or chondroitin sulfate (control group), 25 μL of 1.6 μM plasminogen and 25 μL of 20 nM of single or two-chain t-PA, and 100 μL of 0.6 mM a synthetic substrate S-2251 (H-D-Val-L-Leu-L-Lys-p-nitroanilide·2HCl) were mixed and the absorbancy at 405 nm was determined every 2 minutes with an automatic microtiter plate reader. The reaction was carried out at 37° C. in a buffer composed of 60 mM TriS-HCl with Tween^RTM 80.
(§2) The initial rate of activation of plasminogen was calculated as follows; the slope of plots of, .LAMBDA.405, an absorbancy at 405 nm at time t to the square of time (Δ.LAMBDA.405 /Δt^2) was divided by 40,000 (Chibber, B. A. K., et al., Biochemistry, 1985, pp. 3429-3434). The stimulation rate was calculated from ratios to DS or chondroitin sulfate free conditions which was made the initial rate 1 (one).

[2] = system: activation of plasminogen with two-chain t-PA (tc-tPA); details: s-2251
Method: as §1, §2

stimulation rate of activation of plasminogen (ratio to DS or chondroitin sulfate free conditions) [1]: ≤ 2.5 fold
stimulation rate of activation of plasminogen (ratio to DS or chondroitin sulfate free conditions) [2]: ≤ 1.5 fold
Substance: chondroitin sulfate
